Measured values reported in patent US8952024B2, “Herbicidal pyrimidone derivatives” (E I du Pont de Nemours and Company, priority 2009, dated 2015).

Legend:
Assay type in all cases: in vivo
[1] = system: large crabgrass (Digitaria sanguinalis); test: Test B pre-/postemergence plant response
Summary of the method: (§1)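 Visual injury, 0–100 scale (100 = complete control), rated against controls after 13 to 15 days in greenhouse. Pre-emergence: seeds in loam/sand soil, treated at planting. Post-emergence: 1- to 4-leaf plants (2 to 18 cm) in peat/vermiculite medium. Compounds formulated in non-phytotoxic solvent with surfactant.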

[2] = system: blackgrass (Alopecurus myosuroides); test: Test B pre-/postemergence plant response
Summary of the method: as §1

[3] = system: ragweed (common ragweed, Ambrosia elatior); test: Test B pre-/postemergence plant response
Summary of the method: as §1

wild oat (Avena fatua) = test: Test B pre-/postemergence plant response
Summary of the method: as §1

[4] = system: lambsquarters (Chenopodium album); test: Test B pre-/postemergence plant response
Summary of the method: as §1

[5] = system: velvetleaf (Abutilon theophrasti); test: Test B pre-/postemergence plant response
Summary of the method: as §1

corn (Zea mays) = test: Test B pre-/postemergence plant response
Summary of the method: as §1

[6] = system: Surinam grass (Brachiaria decumbens); test: Test B pre-/postemergence plant response
Summary of the method: as §1

[7] = system: johnsongrass (Sorghum halepense); test: Test B pre-/postemergence plant response
Summary of the method: as §1

[8] = system: bermudagrass (Cynodon dactylon); test: Test B pre-/postemergence plant response
Summary of the method: as §1

[9] = system: woolly cupgrass (Eriochloa villosa); test: Test B pre-/postemergence plant response
Summary of the method: as §1

[10] = system: yellow nutsedge (Cyperus esculentus); test: Test B pre-/postemergence plant response
Summary of the method: as §1

soybean (Glycine max) = test: Test B pre-/postemergence plant response
Summary of the method: as §1

[11] = system: Italian ryegrass (Lolium multiflorum); test: Test B pre-/postemergence plant response
Summary of the method: as §1

[12] = system: chickweed (Stellaria media); test: Test B postemergence plant response; details: Postemergence
Summary of the method: (§2)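 Visual ratings from 0 (no effect) to 100 (complete control), made against controls 13–15 days after treatment, kept in a greenhouse. Compounds were applied postemergence to potted plants at the 1- to 4-leaf stage (2–18 cm).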

[13] = system: winter barley (Hordeum vulgare); test: Test B postemergence plant response; details: for Plant response rating, Barley: Postemergence
Summary of the method: as §2

[14] = system: windgrass (Apera spica-venti); test: Test B postemergence plant response; details: Postemergence
Summary of the method: as §2

[15] = system: canarygrass (Phalaris minor); test: Test B postemergence plant response; details: Postemergence
Summary of the method: as §2

[16] = Postemergence, 31 g ai/ha, 0 to 100 scale (0 no effect, 100 complete control)
[17] = Postemergence, 125 g ai/ha, scale 0 to 100 (0 no effect, 100 complete control)
[18] = Postemergence, 250 g ai/ha, scale 0 to 100 (0 no effect, 100 complete control), 13 to 15 days
[19] = 62 g ai/ha, postemergence, 0 is no effect, 100 is complete control, 13 to 15 days
[20] = 31 g ai/ha, 0 to 100 scale (0 no effect, 100 complete control)
[21] = 125 g ai/ha, scale 0 to 100 (0 no effect, 100 complete control)
[22] = 250 g ai/ha, scale 0 to 100 (0 no effect, 100 complete control), 13 to 15 days
[23] = Postemergence, 62 g ai/ha, scale 0 to 100 (0 no effect, 100 complete control)
[24] = Preemergence, 31 g ai/ha, scale 0 to 100 (0 no effect, 100 complete control)
[25] = Preemergence, 62 g ai/ha, scale 0 to 100, 0 no effect, 100 complete control
[26] = Preemergence, 125 g ai/ha, scale 0 to 100, 0 no effect, 100 complete control
[27] = Preemergence, 250 g ai/ha, 0 to 100 scale
[28] = 62 g ai/ha, scale 0 to 100 (0 no effect, 100 complete control)

Cc1ccc(-n2c(-c3cc(F)cc(F)c3)ncc(C(=O)C3=C(O)CCCC3=O)c2=O)cc1 [Compound 162]
Plant response rating, Crabgrass, Large [1, 16]: 80
Plant response rating, Crabgrass, Large [1, 17]: 98
Plant response rating, Crabgrass, Large [1, 18]: 98
Blackgrass plant response rating (0 to 100 scale) [2, 19]: 40
Plant response rating, Blackgrass [2, 16]: 30
Plant response rating, Blackgrass [2, 17]: 55
Plant response rating, Blackgrass [2, 18]: 65
Plant response rating, Ragweed [3, 16]: 90
Plant response rating, Ragweed [3, 17]: 100
Plant response rating, Ragweed [3, 18]: 100
Plant response rating, Oat, Wild (wild oat (Avena fatua); [16]): 35
Plant response rating, Oat, Wild (wild oat (Avena fatua); [17]): 45
Plant response rating, Oat, Wild (wild oat (Avena fatua); [18]): 55
Plant response rating, Lambsquarters [4, 16]: 80
Plant response rating, Lambsquarters [4, 17]: 98
Plant response rating, Lambsquarters [4, 18]: 100
Plant response rating, Velvetleaf [5, 16]: 80
Plant response rating, Velvetleaf [5, 17]: 95
Plant response rating, Velvetleaf [5, 18]: 100
Plant response rating, Corn (corn (Zea mays); [16]): 50
Plant response rating, Corn (corn (Zea mays); [17]): 80
Plant response rating, Corn (corn (Zea mays); [18]): 85
Plant response rating, Surinam Grass [6, 16]: 65
Plant response rating, Surinam Grass [6, 17]: 75
Plant response rating, Surinam Grass [6, 18]: 85
Plant response rating, Johnsongrass [7, 16]: 98
Plant response rating, Johnsongrass [7, 17]: 100
Plant response rating, Johnsongrass [7, 18]: 100
Bermudagrass plant response rating (0 to 100 scale) [8, 19]: 95
Plant response rating, Bermudagrass [8, 16]: 85
Plant response rating, Bermudagrass [8, 17]: 100
Plant response rating, Bermudagrass [8, 18]: 100
Plant response rating, Cupgrass, Woolly [9, 16]: 90
Plant response rating, Cupgrass, Woolly [9, 17]: 100
Plant response rating, Cupgrass, Woolly [9, 18]: 100
Plant response rating, Nutsedge, Yellow [10, 16]: 25
Plant response rating, Nutsedge, Yellow [10, 17]: 75
Plant response rating, Nutsedge, Yellow [10, 18]: 80
Plant response rating, Soybean (soybean (Glycine max); [16]): 98
Plant response rating, Soybean (soybean (Glycine max); [17]): 100
Plant response rating, Soybean (soybean (Glycine max); [18]): 100
Plant response rating, Ryegrass, Italian [11, 16]: 40
Plant response rating, Ryegrass, Italian [11, 17]: 80
Plant response rating, Ryegrass, Italian [11, 18]: 90
Plant response rating, Chickweed [12, 20]: 90
Plant response rating, Chickweed [12, 21]: 100
Plant response rating, Chickweed [12, 22]: 100
Barley plant response rating (0 to 100 scale) [13, 19]: 35
Plant response rating, Barley [13, 20]: 30
Plant response rating, Barley [13, 21]: 50
Plant response rating, Barley [13, 22]: 85
Plant response rating, Windgrass [14, 20]: 40
Plant response rating, Windgrass [14, 21]: 60
Plant response rating, Windgrass [14, 22]: 80
Plant response rating, Canarygrass [15, 20]: 40
Plant response rating, Canarygrass [15, 21]: 90
Plant response rating, Canarygrass [15, 22]: 90

CCCCn1c(C2CC2)ncc(C(=O)C2=C(O)CCCC2=O)c1=O [Compound 193]
Plant response rating, Crabgrass, Large [1, 16]: 75
Plant response rating, Crabgrass, Large [1, 17]: 98
Plant response rating, Crabgrass, Large [1, 18]: 100
Plant response rating, Crabgrass, Large [1, 23]: 90
Plant response rating, Crabgrass, Large [1, 24]: 100
Plant response rating, Crabgrass, Large [1, 25]: 100
Plant response rating, Crabgrass, Large [1, 26]: 100
Crabgrass, Large plant response rating [1, 27]: 100
Plant response rating, Blackgrass [2, 16]: 10
Plant response rating, Blackgrass [2, 17]: 40
Plant response rating, Blackgrass [2, 18]: 60
Plant response rating, Blackgrass [2, 23]: 15
Plant response rating, Blackgrass [2, 24]: 0
Plant response rating, Blackgrass [2, 25]: 0
Plant response rating, Blackgrass [2, 26]: 30
Blackgrass plant response rating [2, 27]: 70
Plant response rating, Ragweed [3, 24]: 100
Plant response rating, Ragweed [3, 25]: 100
Plant response rating, Ragweed [3, 26]: 100
Ragweed plant response rating [3, 27]: 100
Plant response rating, Oat, Wild (wild oat (Avena fatua); [16]): 0
Plant response rating, Oat, Wild (wild oat (Avena fatua); [18]): 75
Plant response rating, Oat, Wild (wild oat (Avena fatua); [23]): 50
Plant response rating, Oat, Wild (wild oat (Avena fatua); [24]): 5
Plant response rating, Oat, Wild (wild oat (Avena fatua); [25]): 5
Plant response rating, Oat, Wild (wild oat (Avena fatua); [26]): 30
Oat, Wild plant response rating (wild oat (Avena fatua); [27]): 60
Plant response rating, Lambsquarters [4, 16]: 98
Plant response rating, Lambsquarters [4, 17]: 98
Plant response rating, Lambsquarters [4, 18]: 100
Plant response rating, Lambsquarters [4, 23]: 98
Plant response rating, Lambsquarters [4, 24]: 100
Plant response rating, Lambsquarters [4, 25]: 100
Plant response rating, Lambsquarters [4, 26]: 100
Lambsquarters plant response rating [4, 27]: 100
Plant response rating, Velvetleaf [5, 16]: 90
Plant response rating, Velvetleaf [5, 18]: 100
Plant response rating, Velvetleaf [5, 23]: 100
Plant response rating, Velvetleaf [5, 24]: 85
Plant response rating, Velvetleaf [5, 25]: 100
Plant response rating, Velvetleaf [5, 26]: 100
Velvetleaf plant response rating [5, 27]: 100
Plant response rating, Corn (corn (Zea mays); [16]): 0
Plant response rating, Corn (corn (Zea mays); [17]): 40
Plant response rating, Corn (corn (Zea mays); [18]): 60
Plant response rating, Corn (corn (Zea mays); [23]): 15
Plant response rating, Corn (corn (Zea mays); [24]): 0
Plant response rating, Corn (corn (Zea mays); [25]): 0
Plant response rating, Corn (corn (Zea mays); [26]): 5
Corn plant response rating (corn (Zea mays); [27]): 5
Plant response rating, Surinam Grass [6, 16]: 65
Plant response rating, Surinam Grass [6, 18]: 95
Plant response rating, Surinam Grass [6, 23]: 65
Plant response rating, Surinam Grass [6, 24]: 0
Plant response rating, Surinam Grass [6, 25]: 15
Plant response rating, Surinam Grass [6, 26]: 30
Surinam Grass plant response rating [6, 27]: 45
Plant response rating, Johnsongrass [7, 16]: 50
Plant response rating, Johnsongrass [7, 17]: 70
Plant response rating, Johnsongrass [7, 18]: 80
Plant response rating, Johnsongrass [7, 23]: 65
Plant response rating, Johnsongrass [7, 24]: 0
Plant response rating, Johnsongrass [7, 25]: 0
Plant response rating, Johnsongrass [7, 26]: 15
Johnsongrass plant response rating [7, 27]: 60
Plant response rating, Bermudagrass [8, 16]: 95
Plant response rating, Bermudagrass [8, 17]: 100
Plant response rating, Bermudagrass [8, 18]: 100
Plant response rating, Bermudagrass [8, 23]: 100
Plant response rating, Bermudagrass [8, 24]: 75
Plant response rating, Bermudagrass [8, 25]: 95
Plant response rating, Bermudagrass [8, 26]: 95
Bermudagrass plant response rating ([8]; Preemergence, 250 g ai/ha, 0 to 100 scale, 0 no effect, 100 complete control): 98
Plant response rating, Cupgrass, Woolly [9, 16]: 75
Plant response rating, Cupgrass, Woolly [9, 17]: 95
Plant response rating, Cupgrass, Woolly [9, 18]: 98
Plant response rating, Cupgrass, Woolly [9, 23]: 85
Plant response rating, Cupgrass, Woolly [9, 24]: 10
Plant response rating, Cupgrass, Woolly [9, 25]: 70
Plant response rating, Cupgrass, Woolly [9, 26]: 80
Cupgrass, Woolly plant response rating [9, 27]: 90
Plant response rating, Nutsedge, Yellow [10, 16]: 60
Plant response rating, Nutsedge, Yellow [10, 17]: 75
Plant response rating, Nutsedge, Yellow [10, 18]: 75
Plant response rating, Nutsedge, Yellow [10, 23]: 65
Plant response rating, Nutsedge, Yellow [10, 24]: 10
Plant response rating, Nutsedge, Yellow [10, 25]: 65
Plant response rating, Nutsedge, Yellow [10, 26]: 70
Nutsedge, Yellow plant response rating [10, 27]: 90
Plant response rating, Soybean (soybean (Glycine max); [16]): 80
Plant response rating, Soybean (soybean (Glycine max); [18]): 100
Plant response rating, Soybean (soybean (Glycine max); [23]): 98
Plant response rating, Soybean (soybean (Glycine max); [24]): 40
Plant response rating, Soybean (soybean (Glycine max); [25]): 60
Plant response rating, Soybean (soybean (Glycine max); [26]): 60
Soybean plant response rating (soybean (Glycine max); [27]): 80
Plant response rating, Ryegrass, Italian [11, 16]: 5
Plant response rating, Ryegrass, Italian [11, 18]: 45
Plant response rating, Ryegrass, Italian [11, 23]: 40
Plant response rating, Ryegrass, Italian [11, 24]: 0
Plant response rating, Ryegrass, Italian [11, 25]: 0
Plant response rating, Ryegrass, Italian [11, 26]: 25
Ryegrass, Italian plant response rating [11, 27]: 45
Plant response rating, Chickweed [12, 20]: 95
Plant response rating, Chickweed [12, 21]: 100
Plant response rating, Chickweed [12, 22]: 100
Plant response rating, Chickweed [12, 28]: 98
Plant response rating, Barley [13, 20]: 0
Plant response rating, Barley [13, 21]: 50
Plant response rating, Barley [13, 22]: 50
Plant response rating, Barley [13, 28]: 0
Plant response rating, Windgrass [14, 20]: 50
Plant response rating, Windgrass [14, 22]: 75
Plant response rating, Windgrass [14, 28]: 70
Plant response rating, Canarygrass [15, 20]: 5
Plant response rating, Canarygrass [15, 21]: 25
Plant response rating, Canarygrass [15, 22]: 25
Plant response rating, Canarygrass [15, 28]: 5
